In ChEMBL document CHEMBL5053512, “Discovery and Preclinical Pharmacology of an Oral Bromodomain and Extra-Terminal (BET) Inhibitor Using Scaffold-Hopping and Structure-Guided Drug Design” (J Med Chem, 2021):

Experiments:
[1] = Volume of distribution at steady state in rat at 1 mg/kg, iv; type: ADME, organism-based; settings: in vivo, read-out: Vdss
[2] = Anticancer activity against human HCC15 cells; type: functional, cell-based
[3] = Total plasma clearance in dog at 0.1 mg/kg, iv; type: ADME, organism-based, Canis lupus familiaris
NCI-H146 = assay: Anticancer activity against human NCI-H146 cells; type: functional, cell-based
[4] = Permeability coefficient across apical to basolateral side in human Caco-2 cells; type: ADME, cell-based; settings: read-out: permeability
[5] = Antitumour activity against patient-derived human BR0869F cells xenografted in mouse model at 1.6 mg/kg, po bid, 5 days on and 2 days off for 2 weeks; type: functional; settings: 120 h, time 5 day, read-out: TGI
[6] = Antitumour activity against patient-derived human BR1977F cells xenografted in mouse model at 1.6 mg/kg, po bid, 5 days on and 2 days off for 2 weeks; type: functional; settings: 120 h, time 5 day, read-out: TGI
[7] = Antitumour activity against human LG0787F cells xenografted in NSG mouse assessed as tumour growth inhibition at 0.25 mg/kg/day, po bid; type: functional; settings: read-out: TGI
[8] = Metabolic stability in mouse liver microsomes assessed as parent compound remaining at 0.5 uM after 10 mins; type: ADME, Microsome; settings: read-out: Stability
[9] = Antitumour activity against patient-derived human PAT140 cells xenografted in mouse model at 1.6 mg/kg, po bid, 5 days on and 2 days off for 2 weeks; type: functional; settings: PAT140, 120 h, time 5 day, read-out: TGI
A549 = assay: Anticancer activity against human A549 cells; type: functional, cell-based
SK-LU-1 = assay: Anticancer activity against human SK-LU-1 cells; type: functional, cell-based
[10] = Oral bioavailability in rat at 5 mg/kg; type: ADME, organism-based; settings: in vivo
[11] = AUC (0 to 7 hrs) in mouse at 30 mg/kg, po; type: ADME, organism-based; set-up: time < 7 hr, dose 30 mg/kg, route po; settings: in vivo
[12] = Total plasma clearance in mouse at 1.75 mg/kg, iv; type: ADME, organism-based
[13] = Antitumour activity against patient-derived human BR0851F cells xenografted in mouse model at 1.6 mg/kg, po bid, 5 days on and 2 days off for 2 weeks; type: functional; settings: 120 h, time 5 day, read-out: TGI
[14] = biological target: CREB-binding protein (Homo sapiens) (UniProt Q92793)
Description: Binding affinity to CREBBP (unknown origin) assessed as change in melting temperature of protein

NCI-H1355 = assay: Anticancer activity against human NCI-H1355 cells; type: functional, cell-based
[15] = Efflux ratio of permeability in human Caco-2 cells; type: ADME, cell-based
NCI-H441 = assay: Anticancer activity against human NCI-H441 cells; type: functional, cell-based
[16] = Volume of distribution at steady state in monkey at 0.1 mg/kg, iv; type: ADME, organism-based, Macaca mulatta; settings: rhesus monkey, in vivo, read-out: Vdss
[17] = biological target: Voltage-gated inwardly rectifying potassium channel KCNH2 (Homo sapiens, UniProt Q12809); assay: Inhibition of human ERG by flux assay
[18] = Antitumour activity against human JJN3R cells measured after 72 hrs by MTS assay; type: functional, cell-based; settings: JJN-3R
[19] = Cmax in mouse at 30 mg/kg, po; type: ADME, organism-based; set-up: dose 30 mg/kg, route po; settings: in vivo
NCI-H1623 = assay: Anticancer activity against human NCI-H1623 cells; type: functional, cell-based
[20] = Drug concentration at steady state in human LG0787F cells xenografted in NSG mouse at 0.5 mg/kg/day infused continuously over 6 days using Alzet pump; type: ADME, organism-based; settings: in vivo, 144 h, time 6 day
NCI-H520 = assay: Anticancer activity against human NCI-H520 cells; type: functional, cell-based
[21] = biological target: Bromodomain-containing protein 3 (Homo sapiens, UniProt Q15059); assay: Inhibition of human BRD3 measured by TR-FRET assay
[22] = Antitumour activity against patient-derived human PAT78 cells xenografted in mouse model at 1.6 mg/kg, po bid, 5 days on and 2 days off for 2 weeks; type: functional; settings: PAT78, 120 h, time 5 day, read-out: TGI
[23] = Antitumour activity against human LG0787F cells xenografted in NSG mouse at 1 mg/kg/day infused continuously over 6 days using Alzet pump; type: functional; settings: 144 h, time 6 day, read-out: TGI
[24] = biological target: Histone acetyltransferase p300 (Homo sapiens) (UniProt Q09472)
Description: Binding affinity to EP300 (unknown origin) assessed as change in melting temperature of protein

[25] = Drug concentration at steady state in human LG0787F cells xenografted in NSG mouse infused continuously over 6 days using Alzet pump; type: ADME; settings: iv, 144 h, time 6 day
[26] = Total plasma clearance in rat at 1 mg/kg, iv; type: ADME, organism-based
OCI-AML-3 = assay: Anticancer activity against human OCI-AML3 cells; type: functional, cell-based
[27] = Antitumour activity against patient-derived human LGO52.0F/Cis/R48 cells xenografted in mouse model at 1.6 mg/kg, po bid, 5 days on and 2 days off for 2 weeks; type: functional; settings: LGO52.0F/Cis/R48, 120 h, time 5 day, read-out: TGI
[28] = Antitumour activity against patient-derived human PAT149 cells xenografted in mouse model at 1.6 mg/kg, po bid, 5 days on and 2 days off for 2 weeks; type: functional; settings: PAT149, 120 h, time 5 day, read-out: TGI
[29] = Antitumour activity against patient-derived human PAT121 cells xenografted in mouse model at 1.6 mg/kg, po bid, 5 days on and 2 days off for 2 weeks; type: functional; settings: PAT121, 120 h, time 5 day, read-out: TGI
NCI-H1793 = assay: Anticancer activity against human NCI-H1793 cells; type: functional, cell-based
NCI-H1703 = assay: Anticancer activity against human NCI-H1703 cells; type: functional, cell-based
[30] = Antitumour activity against human LG0787F cells xenografted in po dosed NSG mouse assessed as minimum effective concentration measured after 12 hrs; type: functional; settings: dose 0.25 mg/kg/day
[31] = Antitumour activity against patient-derived human BR1367F cells xenografted in mouse model at 1.6 mg/kg, po bid, 5 days on and 2 days off for 2 weeks; type: functional; settings: 120 h, time 5 day, read-out: TGI
[32] = Oral bioavailability in monkey at 5 mg/kg; type: ADME, organism-based, Macaca mulatta; settings: rhesus monkey, in vivo
[33] = Antitumour activity against human LG0787F cells xenografted in NSG mouse assessed as tumour growth inhibition at 1 mg/kg/day, po bid; type: functional; settings: read-out: TGI
[34] = Antitumour activity against human LG0787F cells xenografted in NSG mouse assessed as tumour growth inhibition at 1 mg/kg/day, po qd; type: functional; settings: read-out: TGI
[35] = Antitumour activity against patient-derived human PAT138 cells xenografted in mouse model at 1.6 mg/kg, po bid, 5 days on and 2 days off for 2 weeks; type: functional; settings: PAT138, 120 h, time 5 day, read-out: TGI
[36] = Volume of distribution at steady state in mouse at 1.75 mg/kg, iv; type: ADME, organism-based; settings: in vivo, read-out: Vdss
NCI-H2009 = assay: Anticancer activity against human NCI-H2009 cells; type: functional, cell-based
[37] = Permeability coefficient of the compound by PAMPA; type: ADME; settings: read-out: permeability
[38] = Antitumour activity against patient-derived human LG0787F cells xenografted in mouse model at 1.6 mg/kg, po bid, 5 days on and 2 days off for 2 weeks; type: functional; settings: 120 h, time 5 day, read-out: TGI
Cytochrome P450 3A4 = Cytochrome P450 3A4 (Homo sapiens, UniProt P08684); assay: Inhibition of CYP3A4 (unknown origin); type: ADME
Sequence of Cytochrome P450 3A4 (P08684 whole entry): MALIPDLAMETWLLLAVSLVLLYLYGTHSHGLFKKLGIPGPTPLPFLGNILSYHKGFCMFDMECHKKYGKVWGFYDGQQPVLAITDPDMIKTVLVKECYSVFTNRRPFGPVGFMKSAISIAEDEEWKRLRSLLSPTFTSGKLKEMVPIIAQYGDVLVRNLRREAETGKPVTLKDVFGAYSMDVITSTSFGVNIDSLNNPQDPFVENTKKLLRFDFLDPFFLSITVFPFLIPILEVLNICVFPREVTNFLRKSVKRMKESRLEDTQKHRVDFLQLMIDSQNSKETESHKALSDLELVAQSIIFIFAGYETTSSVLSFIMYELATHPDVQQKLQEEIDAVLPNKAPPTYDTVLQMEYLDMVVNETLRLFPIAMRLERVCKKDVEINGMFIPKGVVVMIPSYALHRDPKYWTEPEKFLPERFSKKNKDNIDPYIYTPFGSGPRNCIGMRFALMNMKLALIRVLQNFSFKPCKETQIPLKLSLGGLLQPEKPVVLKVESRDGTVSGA

Sequence of CREB-binding protein (Homo sapiens) (Q92793 2-2442 limits assumed): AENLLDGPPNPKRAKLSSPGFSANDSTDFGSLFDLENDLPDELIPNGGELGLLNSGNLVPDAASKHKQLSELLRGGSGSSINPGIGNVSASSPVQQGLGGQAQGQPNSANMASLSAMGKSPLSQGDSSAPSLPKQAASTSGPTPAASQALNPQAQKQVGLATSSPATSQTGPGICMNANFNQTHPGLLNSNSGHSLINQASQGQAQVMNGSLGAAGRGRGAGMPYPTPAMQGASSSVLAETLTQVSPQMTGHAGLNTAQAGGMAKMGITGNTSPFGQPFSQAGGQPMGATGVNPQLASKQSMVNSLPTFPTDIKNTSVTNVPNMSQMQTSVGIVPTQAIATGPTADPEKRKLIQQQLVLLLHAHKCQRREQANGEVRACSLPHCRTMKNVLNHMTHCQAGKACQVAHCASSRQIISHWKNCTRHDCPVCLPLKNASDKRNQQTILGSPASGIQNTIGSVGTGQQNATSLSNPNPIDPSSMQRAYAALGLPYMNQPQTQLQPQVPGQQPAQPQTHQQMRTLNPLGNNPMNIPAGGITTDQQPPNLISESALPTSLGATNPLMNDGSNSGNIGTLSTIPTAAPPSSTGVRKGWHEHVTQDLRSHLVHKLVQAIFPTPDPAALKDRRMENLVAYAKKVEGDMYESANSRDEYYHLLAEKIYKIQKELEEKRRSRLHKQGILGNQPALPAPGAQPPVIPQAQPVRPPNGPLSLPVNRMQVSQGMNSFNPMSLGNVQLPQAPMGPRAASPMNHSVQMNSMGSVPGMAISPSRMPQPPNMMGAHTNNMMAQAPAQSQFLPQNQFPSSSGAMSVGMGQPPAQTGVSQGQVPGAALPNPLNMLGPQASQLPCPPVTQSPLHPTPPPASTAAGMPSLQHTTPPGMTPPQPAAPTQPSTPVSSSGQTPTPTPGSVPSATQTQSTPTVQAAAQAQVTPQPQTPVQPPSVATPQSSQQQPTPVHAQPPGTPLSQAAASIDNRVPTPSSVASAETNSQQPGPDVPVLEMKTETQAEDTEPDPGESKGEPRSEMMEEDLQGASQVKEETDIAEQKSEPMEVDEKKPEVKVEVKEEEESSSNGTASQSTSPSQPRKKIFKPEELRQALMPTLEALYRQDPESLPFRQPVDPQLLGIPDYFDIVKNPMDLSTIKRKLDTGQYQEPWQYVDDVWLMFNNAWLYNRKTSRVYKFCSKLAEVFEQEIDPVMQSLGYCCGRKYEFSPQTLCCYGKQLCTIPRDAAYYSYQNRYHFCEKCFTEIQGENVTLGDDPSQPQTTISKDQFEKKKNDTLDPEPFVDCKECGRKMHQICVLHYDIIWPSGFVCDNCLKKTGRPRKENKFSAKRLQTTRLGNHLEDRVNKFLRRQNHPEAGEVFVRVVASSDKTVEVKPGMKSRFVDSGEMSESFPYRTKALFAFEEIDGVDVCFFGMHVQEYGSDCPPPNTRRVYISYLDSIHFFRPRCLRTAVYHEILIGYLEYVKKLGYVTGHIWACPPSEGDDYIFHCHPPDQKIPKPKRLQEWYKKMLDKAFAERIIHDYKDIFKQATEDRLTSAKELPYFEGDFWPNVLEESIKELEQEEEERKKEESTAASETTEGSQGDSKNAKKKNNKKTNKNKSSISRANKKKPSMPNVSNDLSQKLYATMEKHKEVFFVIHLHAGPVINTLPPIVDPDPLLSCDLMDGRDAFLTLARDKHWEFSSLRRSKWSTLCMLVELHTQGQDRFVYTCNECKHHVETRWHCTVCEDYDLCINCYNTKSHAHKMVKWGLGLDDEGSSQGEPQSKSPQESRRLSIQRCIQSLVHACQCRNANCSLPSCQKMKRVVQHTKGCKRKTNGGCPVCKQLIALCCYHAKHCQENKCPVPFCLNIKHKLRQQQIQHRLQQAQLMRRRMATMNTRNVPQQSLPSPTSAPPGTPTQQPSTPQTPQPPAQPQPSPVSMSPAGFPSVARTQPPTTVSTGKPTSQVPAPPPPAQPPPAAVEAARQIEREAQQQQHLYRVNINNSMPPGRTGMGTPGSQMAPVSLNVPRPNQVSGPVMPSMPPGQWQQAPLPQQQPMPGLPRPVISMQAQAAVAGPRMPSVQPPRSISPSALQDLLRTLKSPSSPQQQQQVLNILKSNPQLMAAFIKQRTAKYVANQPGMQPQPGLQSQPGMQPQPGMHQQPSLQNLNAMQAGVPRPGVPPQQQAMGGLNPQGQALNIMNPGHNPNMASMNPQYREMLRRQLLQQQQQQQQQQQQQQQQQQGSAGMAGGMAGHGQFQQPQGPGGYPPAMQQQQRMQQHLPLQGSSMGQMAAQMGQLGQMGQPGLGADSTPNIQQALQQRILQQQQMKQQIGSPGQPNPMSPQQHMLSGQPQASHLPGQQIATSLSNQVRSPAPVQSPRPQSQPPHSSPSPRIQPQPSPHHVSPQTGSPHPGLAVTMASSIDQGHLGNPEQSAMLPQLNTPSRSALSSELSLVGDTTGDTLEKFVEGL
Sequence of Voltage-gated inwardly rectifying potassium channel KCNH2 (Q12809 whole entry): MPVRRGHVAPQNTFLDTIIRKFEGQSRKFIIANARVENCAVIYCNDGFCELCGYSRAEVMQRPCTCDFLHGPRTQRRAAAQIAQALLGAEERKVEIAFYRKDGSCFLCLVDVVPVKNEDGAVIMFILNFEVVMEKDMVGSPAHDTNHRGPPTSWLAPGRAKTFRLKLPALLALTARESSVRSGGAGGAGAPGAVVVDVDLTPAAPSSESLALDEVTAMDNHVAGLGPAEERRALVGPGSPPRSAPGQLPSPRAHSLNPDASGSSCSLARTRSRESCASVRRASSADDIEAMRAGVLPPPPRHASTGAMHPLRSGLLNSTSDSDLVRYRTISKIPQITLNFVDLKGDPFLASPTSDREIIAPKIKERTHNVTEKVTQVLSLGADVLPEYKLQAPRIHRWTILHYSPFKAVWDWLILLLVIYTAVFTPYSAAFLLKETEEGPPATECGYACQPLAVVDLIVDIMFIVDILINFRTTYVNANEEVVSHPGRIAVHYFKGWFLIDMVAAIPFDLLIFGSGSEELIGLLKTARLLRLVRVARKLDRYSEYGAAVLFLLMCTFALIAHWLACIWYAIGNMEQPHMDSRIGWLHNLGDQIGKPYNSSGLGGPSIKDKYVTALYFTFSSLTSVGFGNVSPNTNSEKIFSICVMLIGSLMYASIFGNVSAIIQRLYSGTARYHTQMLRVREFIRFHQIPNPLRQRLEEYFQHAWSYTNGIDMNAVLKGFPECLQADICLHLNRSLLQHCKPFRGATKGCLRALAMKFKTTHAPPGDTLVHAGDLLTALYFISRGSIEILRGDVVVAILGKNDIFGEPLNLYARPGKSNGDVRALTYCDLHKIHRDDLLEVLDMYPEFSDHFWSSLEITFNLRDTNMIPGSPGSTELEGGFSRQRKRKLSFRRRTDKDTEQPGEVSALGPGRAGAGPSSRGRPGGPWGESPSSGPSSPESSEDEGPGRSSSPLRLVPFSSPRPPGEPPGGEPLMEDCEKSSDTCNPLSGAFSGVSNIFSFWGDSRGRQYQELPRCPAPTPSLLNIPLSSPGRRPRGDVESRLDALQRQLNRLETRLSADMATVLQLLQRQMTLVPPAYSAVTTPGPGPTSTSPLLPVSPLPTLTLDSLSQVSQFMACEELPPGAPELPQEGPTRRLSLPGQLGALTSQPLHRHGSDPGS
Sequence of Bromodomain-containing protein 3 (Q15059 whole entry): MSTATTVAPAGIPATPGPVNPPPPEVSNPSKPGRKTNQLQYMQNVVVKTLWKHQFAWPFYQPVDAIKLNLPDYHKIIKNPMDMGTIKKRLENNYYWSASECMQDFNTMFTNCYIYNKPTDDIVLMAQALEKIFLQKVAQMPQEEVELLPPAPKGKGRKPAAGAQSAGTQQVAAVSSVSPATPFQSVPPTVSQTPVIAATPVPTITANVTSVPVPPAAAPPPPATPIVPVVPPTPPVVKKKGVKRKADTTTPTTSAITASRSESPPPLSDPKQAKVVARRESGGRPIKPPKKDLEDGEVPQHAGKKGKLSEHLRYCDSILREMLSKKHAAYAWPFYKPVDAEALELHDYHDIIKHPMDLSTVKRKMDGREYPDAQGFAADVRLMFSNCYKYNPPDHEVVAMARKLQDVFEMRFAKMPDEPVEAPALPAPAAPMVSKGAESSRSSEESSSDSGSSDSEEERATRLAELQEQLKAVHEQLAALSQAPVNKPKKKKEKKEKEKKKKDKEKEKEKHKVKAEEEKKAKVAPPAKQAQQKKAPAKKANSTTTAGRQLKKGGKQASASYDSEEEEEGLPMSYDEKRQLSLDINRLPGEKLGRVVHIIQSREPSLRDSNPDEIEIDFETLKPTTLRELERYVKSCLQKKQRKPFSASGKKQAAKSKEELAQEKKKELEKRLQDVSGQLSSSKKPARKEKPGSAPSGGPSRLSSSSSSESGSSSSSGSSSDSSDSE

Cc1nnn(C)c1-c1cnc2c3ccc(C(C)(C)O)cc3n([C@H](c3ccccc3)C3CCOCC3)c2c1 [EZOBRESIB]
Vd [1]: 4.3 L/kg | IC50 [2]: 0.365 µM | clearance [3]: 0.9 L/h/kg | IC50 (NCI-H146): 0.00041 µM | Papp A→B [4]: 133 nm/s | inhibition in vivo at 1.6 mg/kg [5]: 56% | inhibition in vivo at 1.6 mg/kg [6]: 88% | inhibition in vivo at 0.25 mg/kg/day [7]: 46% | remaining at 10 min, 0.5 µM [8]: 66% | inhibition in vivo at 1.6 mg/kg [9]: 59% | IC50 (A549): > 0.5 µM | IC50 (SK-LU-1): 0.21 µM | bioavailability [10]: 47% | AUC(0-t) at 7 h [11]: 49.6 µM·h | clearance [12]: 0.72 L/h/kg | inhibition in vivo at 1.6 mg/kg [13]: 49% | ΔTm [14]: 5.6 °C | IC50 (NCI-H1355): > 0.5 µM | efflux ratio [15]: 2.6 | IC50 (NCI-H441): 0.118 µM | Vd [16]: 4.2 L/kg | IC50 [17]: > 80 µM | IC50 [18]: 0.0036 µM | Cmax [19]: 11.9 µM | IC50 (NCI-H1623): > 0.5 µM | Css [20]: 0.01 µM | IC50 (NCI-H520): > 0.5 µM | IC50 [21]: 0.0011 µM | inhibition in vivo at 1.6 mg/kg [22]: 47% | inhibition in vivo at 1 mg/kg/day [23]: 78% | ΔTm [24]: 9.5 °C | Css [25]: 0.017 µM | clearance [26]: 2.46 L/h/kg | IC50 (OCI-AML-3): 0.0007 µM | inhibition in vivo at 1.6 mg/kg [27]: 50% | inhibition in vivo at 1.6 mg/kg [28]: 101% | inhibition in vivo at 1.6 mg/kg [29]: 85% | IC50 (NCI-H1793): > 0.5 µM | IC50 (NCI-H1703): > 0.5 µM | MEC [30]: 10 nM | inhibition in vivo at 1.6 mg/kg [31]: 68% | bioavailability [32]: 16% | inhibition in vivo at 1 mg/kg/day [33]: 70% | inhibition in vivo at 1 mg/kg/day [34]: 50% | inhibition in vivo at 1.6 mg/kg [35]: 75% | Vd [36]: 1.9 L/kg | IC50 (NCI-H2009): > 0.5 µM | Papp [37]: 661 nm/s | inhibition in vivo at 1.6 mg/kg [38]: 110% | IC50 (Cytochrome P450 3A4): > 20 µM
